Patent publication US20160022751A1, “NOVEL COMPOSITION FOR TREATING ALZHEIMER'S DISEASE AND IMPROVING COGNITIVE FUNCTION OF ALZHEIMER'S PATIENTS” (GANGNEUNG-WONJU NATIONAL UNIVERSITY INDUSTRY ACADEMY …, priority 2014, published 2016)

Experiments:
VAChT = VAChT mRNA expression in N2a cells (RT-PCR); type: cell-based, mouse; settings: for expression of VAChT mRNA: single ginsenoside (FIG. 7B); for expression of VAChT, dose dependence: various concentrations (FIG. 7D)
Text: (§1) The present inventor reported that ChAT overexpressing human neural stem cells restored cognition with an increase of ACh levels in rat model (Park et al., Exp. Neurol., 234: 521-526, 2012). This implies that the increase of the ChAT level in cholinergic neurons plays a critical role in cognition enhancement and thus the cholinergic gene locus “VAChT/ChAT” can be a putative target for therapeutic approaches on AD. Thus the present inventor prepared transfected Neuro-2a (N2a) cells that over-express the human ChAT and APP (designated as “N2a.hChAT” and “N2a.hAPPswe”, respectively, FIG. 6) and the N2a.hChAT and N2a.hAPPswe cells were treated with the faction groups 1 to 5 isolated in the Example 3 at a centration of 50 μg/ml. Neuro-2a mouse neuroblastoma cells (Korean Cell Line Bank, Korea) were grown in DMEM supplemented with 10% fetal bovine serum (FBS), 100 U/m penicillin, and 100 μg/ml streptomycin (Invitrogen, USA) under 5% CO2 at 37° C. in tissue culture flasks. For all experiments, cells were grown to greater than 90% confluency and subjected to no more than 20 cell passages. The medium was changed every 2-3 days. Subconfluent cells were harvested and seeded at a density of 5×10^5 cells or 5×10^6 cells in poly-L-lysine-coated 35 mm or 60 mm culture plates. To recover the cells that are not completely saturated for analysis, poly-L-lysine coated 35 mm or 60 mm culture was seeded at a concentration of 5×10^5 or 5×10^6 cells on the plates. The extent of expression of hChAT and APP in the N2a.hChAT and N2a.hAAPswe cells treated with the faction groups 1 to 5 was quantified with RT-PCR using primers described in the below Table 2. At this time, beta-actin was used as an internal control.
(§2) Specifically, total RNA extracts from N2a cells were prepared using the Trizol method (Invitrogen, USA) and cDNA was synthesized from RNA by reverse transcription of 1 μg of total RNA using a reverse transcription system (Improm-II, Promega, USA) and oligo dT primers in a total volume of 20 μL. PCR amplification was performed using the primers described in Table 2 (Bioneer, Korea). Quantitative real-time PCR reactions were run on a Rotor-Gene 6000 (Corbett Research, Australia) using SensiMix™ SYBR Hi-ROX Kit (Bioline, U.K.) in 20 μL reaction mixtures. Each real-time-PCR master mix contained 10 μL 2× enzyme master mix, 7.0 μL RNase free water, 1 μL of each primer (10 pM each), and 1 μL diluted template. The PCR was performed with an initial pre-incubation step for 15 min at 95° C., followed by 45 cycles of 95° C. for 15 s, annealing at 52° C. for 15 s, and extension at 72° C. for 10 s. Melting curve analysis was used to confirm formation of the expected PCR product, and products from all assays were additionally tested with 1.2% agarose gel electrophoresis to confirm the correct lengths. An inter-run calibrator was used, and a standard curve was created for each gene to obtain PCR efficiencies. Relative sample expression levels were calculated using Rotor-Gene 6000 Series Software 1.7, and were expressed relative to β-actin and corrected for between-run variability. Data for the experimental samples were expressed as a fold unit the internal control gene.
(§3) In order to examine whether five ginsenosides affect the expression of ChAT related to the synthesis of acetylcholine and VAChT controlling extracellular secretion of acetylcholine, the present inventor analyzed the expression level of ChAT and VAChT after treating the five ginsenosides to N2a […] cells, respectively.

[1] = HPLC analysis of ginsenosides transported into the brain after oral administration; type: in vivo, BALB/c mice; settings: mice, oral mixture of Rb1, Re, Rd, Rg1, Rg3 10 mg/kg each, brain taken after six hours, HPLC (FIG. 22)
Protocol: Thus, the present inventor performed an HPLC analysis on brain tissue extract obtained from experimental animals administrated with mixture of five ginsenosides (Rb1, Rd, Re, Rg1 and Rg3) which are contained in RgC, in order to investigate whether RgC or ginsenosides Rd, Re and Rg3 can pass through the BBB. For the HPLC analysis of ginsenosides transported into the brain, a mixture of Rb1, Re, Rd, Rg1, and Rg3 (10 mg/kg each) was administered to ten-week-old male BALB/c mice (Central Lab. Animals, Korea). Brain tissues were isolated six hours after the oral administration of the ginsenosides after the complete perfusion with 0.9% saline solution, mechanically disrupted using a TissueLyser (Qiagen, Crawley, U.K.), and centrifuged for 10 min at 13500 rpm. The supernatant (1 mL) was then mixed with n-butanol (0.4 mL) and the butanol layer was completely evaporated and dried for HPLC analysis. The chromatography was performed by the Agilent 1100 series HPLC system (Agilent Technologies, USA) equipped with a vacuum degasser, quaternary pump, and ultraviolet (UV) detector. Chromatographic separation was performed on a Zorbax SB-Aq C18 column (4.6150 mm, 5 μm) and a mixture of solvent A (water) and solvent B (acetonitrile) flowed at a rate of 1 mL/min. The gradient elution program was initiated with 79% solvent A and 21% solvent B, 0-10 min (21-22% B), 10-11 min (22-23% B), 11-29 min (23-24% B), 29-34 min (24-30% B), 34-44 min (30-32% B), 44-49 min (32-50% B), 49-64 min (50-65% B), 64-78 min (65-100% B), and equilibrated with the initial gradient program (21% B) for 10 min prior to the next injection. The column temperature was set at 35° C., the volume of the sample injection was 10 μL, and detection wavelength was set at 203 nm. The animal experiments were approved by the Gangneung-Wonju National University Animal Care and Use Committee (Approval Number: GWNU-2013-23), and all procedures were conducted in accordance with the Guide for Care and Use of Laboratory Animals published by the National Institute of Health.

ChAT = ChAT mRNA expression in N2a cells (RT-PCR); type: cell-based, mouse; settings: for expression of ChAT mRNA: single ginsenoside (FIG. 7A); for expression of ChAT, dose dependence: various concentrations (FIG. 7C)
Text: as §1, §2, §3

NGFR (p75) = NGFR (p75) mRNA expression in N2a cells (quantitative RT-PCR); type: cell-based, mouse; settings: N2a cells (FIG. 13)
Text: Since NGF-Trk signal pathway upregulates ChAT and VAChT, it is important to know whether ginsenosides Rd and Re regulate Trk activity directly or at least indirectly. Therefore, the inventor investigated whether the expression of ChAT and VAChT was blocked by treating K252a, an inhibitor against protein kinase C (PKC) and Trk together with ginsenoside Rd or Re, in order to determine more closely whether the expression of cholinergic surface markers and the differentiation of neurons by the treatment of ginsenosides Rd and Re are caused whereby they act NGF-TrkA pathway directly. Particularly, N2a cells were treated with or without K252a (50 nM) in the presence of NGF (100 ng/mL), Re (5 μg/mL) or Rd (5 μg/mL) for 48 h. Total RNA and protein lysates were isolated as described in the Example 4-1 (FIG. 12). […] In addition, the present inventor performed quantitative RT-PCR in order to verify whether the treatment of ginsenosides Rd and Re affect the expression of NGF and NGFR in N2a cells.

SMILES | expression of VAChT mRNA (VAChT) | expression of VAChT, dose dependence (VAChT) | penetration into the brain (passage through BBB) [1] | expression of ChAT mRNA (ChAT) | expression of ChAT, dose dependence (ChAT) | NGFR (p75) mRNA level (NGFR (p75))
CC(C)=CCC[C@](C)(O[C@@H]1O[C@H](CO)[C@@H](O)[C@H](O)[C@H]1O)[C@H]1CC[C@]2(C)[C@@H]1[C@H](O)C[C@@H]1[C@@]3(C)CC[C@H](O[C@@H]4O[C@H](CO)[C@@H](O)[C@H](O)[C@H]4O[C@@H]4O[C@H](CO)[C@@H](O)[C@H](O)[C@H]4O)C(C)(C)[C@@H]3CC[C@]12C [ginsenoside Rd] | significantly increased | increased expression of ChAT and VAChT in a dose-dependent manner | penetrated into the brain | significantly increased | increased expression of ChAT and VAChT in a dose-dependent manner | significantly increased
CC(C)=CCC[C@](C)(O[C@@H]1O[C@H](CO)[C@@H](O)[C@H](O)[C@H]1O)[C@H]1CC[C@]2(C)[C@@H]1[C@H](O)C[C@@H]1[C@@]3(C)CC[C@H](O)C(C)(C)[C@@H]3[C@@H](O[C@@H]3O[C@H](CO)[C@@H](O)[C@H](O)[C@H]3O[C@@H]3O[C@@H](C)[C@H](O)[C@@H](O)[C@H]3O)C[C@]12C [ginsenoside Re] | significantly increased | increased expression of ChAT and VAChT in a dose-dependent manner | penetrated into the brain | significantly increased | increased expression of ChAT and VAChT in a dose-dependent manner | significantly increased
CC(C)=CCC[C@](C)(O)[C@H]1CC[C@]2(C)[C@@H]1[C@H](O)C[C@@H]1[C@@]3(C)CC[C@H](O[C@@H]4O[C@H](CO)[C@@H](O)[C@H](O)[C@H]4O[C@@H]4O[C@H](CO)[C@@H](O)[C@H](O)[C@H]4O)C(C)(C)[C@@H]3CC[C@]12C [ginsenoside Rg3] | no significant increase |  | penetrated into the brain | no significant increase |  | 
